Measurements reported in the OPERA property sets (Mansouri et al. 2018).

Conditions: for log10 BCF / log10 biotransformation half-life (days): fish

Compound | melting point | boiling point | other results
CCCCCCOC(=O)CCCCCCCC(=O)OCCCCCC | -8 °C | – | –
CSc1ccc(N)cc1 | – | 272 °C | –
O=C(O)c1ccccc1Nc1ccccc1 | 184 °C | – | –
Cc1cc(C)cc(O)c1 | 63.6 °C | 222 °C | log10 Henry constant (atm·m³/mol): -6.21; log10 Koc (L/kg): 2.83; log10 vapour pressure (mmHg): -1.39
OCC(Cc1ccccc1)c1ccccc1 (centres undefined) | 51 °C | 310 °C | –
COc1cc(NS(=O)(=O)c2ccc(N)cc2)nc(OC)n1 | 204 °C | – | –
CCCCCCCCON=O | – | 174 °C | –
CC(Cl)CCl (centres undefined) | -100 °C | 95.5 °C | log10 Henry constant (atm·m³/mol): -2.55; log10 Koa: 2.96; log10 Koc (L/kg): 1.67; log10 vapour pressure (mmHg): 1.73; ready biodegradability: not readily biodegradable; log10 BCF: 0.85; log10 biotransformation half-life (days): -1.06
CN=NC | -78 °C | 1.5 °C | –
CCCCC(C)CCC (centres undefined) | -113 °C | 142 °C | log10 biodegradation half-life (days): 0.699; log10 vapour pressure (mmHg): 0.835
CCCCCCCCCCOc1ccc(C(=O)O)cc1 | 114 °C | – | –
COc1cc(-c2coc3cc(O)c(OC)c(O)c3c2=O)cc(O)c1OC | 185 °C | – | –
Brc1ccc(Oc2ccccc2)c(Br)c1 | – | – | log10 Koa: 8.37
CCCCCCCCC(C)CCC (centres undefined) | – | – | log10 biotransformation half-life (days): 0.98
CCCCC(CC)COC(=O)CC(C(=O)OCC(CC)CCCC)S(=O)(=O)O (centres undefined) | – | – | log10 BCF: 0.97
ClC(Cl)C(Cl)(Cl)C(Cl)Cl | – | 218 °C | –
Cc1cccc2cc[nH]c12 | 85 °C | 266 °C | –
Clc1[nH]nc2ccccc12 | 149 °C | – | –
Cc1cccc(C)c2cc(C(C)C)cc1-2 | 32.3 °C | – | –
c1ccc([Se]c2ccccc2)cc1 | 2.5 °C | 302 °C | –
FC(F)(F)C(F)(F)C(F)(F)C(F)(C(F)(F)F)C(F)(F)F | -119 °C | 57.6 °C | –
CCC(C)(C)CO | – | 136 °C | –
CC(=O)Nc1ccc(O)cc1 | 170 °C | – | ready biodegradability: readily biodegradable
C=C(C)C(=O)OCC1CO1 (centres undefined) | – | – | ready biodegradability: readily biodegradable

Compound | melting point | boiling point | other results
Clc1nc(Cl)c(Cl)c(Cl)c1Cl | 126 °C | – | log10 vapour pressure (mmHg): -1.85
COC(C)C | – | 30.7 °C | log10 vapour pressure (mmHg): 2.78
CCCCCCCCCF | 1 °C | 168 °C | –
CCCCCCCCNC(C)C(O)c1ccc(SC(C)C)cc1 (centres undefined) | 62.5 °C | – | –
O=C1CCCCCC1 | – | 178 °C | log10 vapour pressure (mmHg): 0.0969
COC(=O)c1ccc(C(F)(F)F)nc1S(=O)(=O)[N]([Na])C(=O)Nc1nc(OC)cc(OC)n1 | – | – | log10 Koc (L/kg): 1.46
CCCCCCCC/C=C\CCCCCCCC(=O)O | – | 360 °C | log10 vapour pressure (mmHg): -5.85; ready biodegradability: readily biodegradable
O=C(c1ccc(O)cc1)c1ccc(O)c(O)c1O | – | – | ready biodegradability: not readily biodegradable
C#CC(C)(C)NC(=O)c1ccccc1 | – | – | log10 Koc (L/kg): 1.54
COc1cc(C[C@H]2c3cc(OC)c(OC)cc3CCN2C)c(Oc2cc3c(cc2OC)-c2c(OC)c(OC)cc4c2[C@H](C3)N(C)CC4)cc1OC | 160 °C | – | –
Cc1ccc2cc3c(ccc4ccccc43)cc2c1 | 152 °C | – | –
CCCc1ccccc1 | -99.5 °C | 159 °C | log10 Henry constant (atm·m³/mol): -1.98; log10 Koa: 4.09; log10 Koc (L/kg): 2.87; log10 biodegradation half-life (days): 0.602; log10 vapour pressure (mmHg): 0.534; ready biodegradability: readily biodegradable
CO/N=C(/C(=O)OC)c1ccccc1COc1ccccc1C | 99 °C | – | log10 vapour pressure (mmHg): -7.76
OC(C(F)(F)F)C(F)(F)F | -4 °C | 59 °C | log10 Henry constant (atm·m³/mol): -4.37; log10 vapour pressure (mmHg): 2.2; ready biodegradability: not readily biodegradable; log10 BCF: 0.4; log10 biotransformation half-life (days): -1.32
O=Cc1ccc(Oc2ccccc2)cc1 | 24.5 °C | – | –
c1cc[n+]2c(c1)-c1cccc[n+]1CC2 | – | – | log10 Koc (L/kg): 2.7; log10 vapour pressure (mmHg): -8; log10 BCF: 0.76
CC(C)[C@@H](N)C(=O)O | 315 °C | – | –
c1ccc(NNc2ccccc2)cc1 | 131 °C | 309 °C | log10 Koc (L/kg): 2.98; log10 vapour pressure (mmHg): -3.36
O=C(O)C(Cl)=C(Cl)Cl | 76 °C | 222 °C | –
O=C1c2ccccc2C(=O)c2c1ccc([N+](=O)[O-])c2[N+](=O)[O-] | 341 °C | – | log10 vapour pressure (mmHg): -11.2
CON=O | -16 °C | -12 °C | –
CCC(CC)COCCC(=O)O | 32.5 °C | 343 °C | –
CCOC(=O)c1cccc(N)c1 | – | 294 °C | –
CCCCCCC(Cl)Cl | – | 191 °C | –

Compound | melting point | boiling point | other results
CC(C)c1cccc(C(C)C)c1 | -63.1 °C | 203 °C | log10 vapour pressure (mmHg): -0.406; log10 BCF: 3.28; log10 biotransformation half-life (days): 0.56
Cc1ccc(O)c(C)c1 | 24.5 °C | 211 °C | log10 Henry constant (atm·m³/mol): -6.02; log10 vapour pressure (mmHg): -0.991; ready biodegradability: readily biodegradable
C=CCOC(=O)C(=C)C | – | – | log10 vapour pressure (mmHg): 0.761; ready biodegradability: readily biodegradable
CC(C)(O)Cc1ccc(Cl)cc1 | 34 °C | – | –
Cc1ccc(OC(=O)c2ccccc2)cc1 | 71.5 °C | 316 °C | –
Nc1cccc2ncccc12 | 110 °C | 310 °C | log10 vapour pressure (mmHg): -4.77
O=C=Nc1ccc(-c2ccccc2)cc1 | 56 °C | 283 °C | –
CCOS(=O)(=O)c1ccc(C)cc1 | 34.5 °C | – | –
O=C(O)c1ccc([N+](=O)[O-])c(O)c1 | 230 °C | – | –
CCCC(CC)C1(CC)C(=O)NC(=O)NC1=O (centres undefined) | 122 °C | – | –
COc1ccc2c(c1)CCCC2=O | 78 °C | – | –
CC(C)CS | – | 88.5 °C | log10 vapour pressure (mmHg): 1.84
CCCCCCCCCCCCCCCC(=O)c1ccccc1 | 59 °C | – | –
CCCCCCCCC(Br)CBr (centres undefined) | 28 °C | – | log10 vapour pressure (mmHg): -2.43
CC(C)CC(=O)OCc1ccccc1 | – | 245 °C | –
Cc1cccc(O)c1C(=O)O | 173 °C | – | –
Nc1ccc([N+](=O)[O-])cc1Cl | 108 °C | – | log10 Henry constant (atm·m³/mol): -8.02; ready biodegradability: not readily biodegradable
O=C1CCC[C@@H]2[C@H]3CCCN4CCC[C@@H](CN12)[C@@H]34 (racemic) | 76 °C | – | –
O=S(=O)(Cl)c1ccccc1 | 14.5 °C | 252 °C | log10 vapour pressure (mmHg): -1.24
CC(Cl)(Cl)C(=O)O | -5 °C | 188 °C | log10 Koc (L/kg): 0.4; log10 vapour pressure (mmHg): -0.821
CNCC(O)c1ccc(O)cc1 (centres undefined) | 184 °C | – | –
CCCC(=O)C=Cc1ccc(O)c(O)c1 | 132 °C | – | –
CC(C)C1(C)N=C(c2ncccc2C(=O)O)NC1=O (centres undefined) | 171 °C | – | log10 Koc (L/kg): 2
C=CCOC(=O)c1ccccc1C(=O)OCC=C | – | – | ready biodegradability: readily biodegradable

Compound | melting point | boiling point | other results
CNOC | – | – | log10 vapour pressure (mmHg): 2.58
C1OC1C1CO1 (centres undefined) | – | – | log10 Koc (L/kg): 0.4; log10 vapour pressure (mmHg): 1.59
CC1=C(/C=C/C(C)=C/C=C/C(C)=C/C=C/C=C(C)/C=C/C=C(C)/C=C/C2=C(C)C[C@@H](O)CC2(C)C)C(C)(C)C[C@H](O)C1 | 216 °C | – | –
CCOC(=O)c1ccc(Cl)cc1 | – | 238 °C | –
CCCCCCCCC(C)=O | 14 °C | 210 °C | log10 vapour pressure (mmHg): -0.571; ready biodegradability: readily biodegradable
C[Si]1(C)O[Si](C)(C)O[Si](C)(C)O[Si](C)(C)O[Si](C)(C)O[Si](C)(C)O[Si](C)(C)O1 | -26 °C | – | log10 vapour pressure (mmHg): -1.95; log10 biotransformation half-life (days): 1.48
CC(C)C=CCO | – | 159 °C | –
NS(=O)(=O)c1cc(Cl)c(Cl)c(S(N)(=O)=O)c1 | 229 °C | – | –
Cn1c(=O)c2c(ncn2C)n(C)c1=O | 238 °C | – | –
CC(=O)NC1C(O)OC(CO)C(O)C1O (centres undefined) | – | – | ready biodegradability: readily biodegradable
ON=C(C1CC1)C1CC1 | 76.5 °C | – | –
CCC(O)CO (centres undefined) | – | 194 °C | log10 vapour pressure (mmHg): -1.3; ready biodegradability: readily biodegradable
CC(O)CCl (centres undefined) | – | 127 °C | log10 vapour pressure (mmHg): 0.69
O=C(Cl)c1cccc(C(F)(F)F)c1 | – | 187 °C | –
O=C(C(F)(F)F)C(F)(F)Cl | -133 °C | 8 °C | log10 vapour pressure (mmHg): 3.15
CN(C(O)=NC(C)(C)c1ccccc1)c1ccccc1 | 72 °C | – | –
CCCCC(C)(C)C(C)C | – | 160 °C | –
CCOC(=O)C(=Cc1ccccc1)C(=O)OCC | 32 °C | – | –
CC12CCC(C(=O)C1=O)C2(C)C (racemic) | 199 °C | – | –
CCCNCC | – | 81 °C | –
O=C(O)C1CC1 | 18.5 °C | 183 °C | log10 vapour pressure (mmHg): -0.62
CC(Oc1ccc(Oc2ccc(Cl)cc2Cl)cc1)C(=O)O (centres undefined) | 120 °C | – | –
Nc1ccn([C@H]2CC[C@@H](CO)O2)c(=O)n1 | 218 °C | – | –
CC(C)CC(=O)OC(C)C | – | 142 °C | –

Compound | melting point | boiling point | other results
Cc1ccc(S(=O)(=O)c2coc(S(N)(=O)=O)c2)cc1 | 185 °C | – | –
CCOCCOCCOCCO | -18.7 °C | 256 °C | log10 vapour pressure (mmHg): -2; ready biodegradability: readily biodegradable
FC(F)(Cl)C(F)(F)Cl | -94 °C | 3.8 °C | log10 vapour pressure (mmHg): 3.3
Nc1c(F)cc(F)cc1F | 35 °C | – | –
BrCOCBr | -34 °C | 154 °C | –
O=[N+]([O-])c1cccc(O)c1 | 96.8 °C | – | log10 Henry constant (atm·m³/mol): -8.7; ready biodegradability: readily biodegradable; log10 BCF: 1.4; log10 biotransformation half-life (days): -0.49
CCCC(C)(O)CCC | -82 °C | 161 °C | –
FC(F)(F)C(F)(F)C(F)(F)C(F)(F)C(F)(F)C(F)(F)C(F)(F)C(F)(F)C(F)(F)C(F)(F)C(F)(F)C(F)(F)C(F)(F)C(F)(F)C(F)(F)C(F)(F)C(F)(F)C(F)(F)C(F)(F)C(F)(F)C(F)(F)C(F)(F)C(F)(F)C(F)(F)F | 189 °C | – | –
COC1=C[C@@H](C)[C@@H]2C[C@H]3OC(=O)C[C@H]4C(C)=C(OC)C(=O)[C@H]([C@@]2(C)C1=O)[C@@]34C | 222 °C | – | –
CC(CC1CCCCC1)CC1CCCCC1 | 0.6 °C | 295 °C | –
O=C(O)c1c(Cl)cccc1Cl | 144 °C | – | ready biodegradability: not readily biodegradable; log10 BCF: 0.26
CCC(C)C(CC)CC (centres undefined) | – | 140 °C | –
FC(Cl)(Cl)C(Cl)(Cl)Cl | 101 °C | 135 °C | –
NC(=O)Oc1ccccc1 | 150 °C | – | –
CCOc1ccc2ccccc2c1C=O | 115 °C | – | –
COCC1CO1 (centres undefined) | – | 113 °C | –
NC(=O)CCCCC1CCSS1 (centres undefined) | 128 °C | – | –
Cc1cc(C)cc(OCC2CNC(=O)O2)c1 (centres undefined) | 122 °C | – | –
Clc1ccc(C(c2ccc(Cl)cc2)C(Cl)Cl)cc1 | 110 °C | 350 °C | log10 Henry constant (atm·m³/mol): -5.18; log10 Koa: 10.1; log10 Koc (L/kg): 4.21; log10 vapour pressure (mmHg): -5.87; log10 biotransformation half-life (days): 2.44
Nc1ccccc1C(=O)O | 145 °C | – | ready biodegradability: readily biodegradable
CC(CN1c2ccccc2Sc2ccccc21)[N+](C)(C)CCO.[Cl-] (centres undefined) | 233 °C | – | –
c1ccc(Cc2cccnc2)cc1 | 34 °C | 287 °C | –
C=C(C)OC | – | 35 °C | log10 vapour pressure (mmHg): 2.71
